{
  "source": "patent US20140155445A1",
  "about": "“Compounds and Methods for Treating Cancer and Diseases of the Central Nervous System” (Osta Biotechnologies Inc., priority 2007, published 2014)",
  "key": {"[1]": {"system": "SKMEL 28-V+ cells (human melanoma)", "experiment": "Melanoma model SKMEL-V+ in SCID mice (combination study)", "format": "in vivo", "details": "QC-56 60 mg/kg/ip; Dacarbazine 55 mg/kg", "experimental": "SKMEL 28-V+ cells (human melanoma). These cells were originally from the ATCC and then engineered to overexpress VEGF. […] The cells were tested to be free of mycoplasma.\nControl groups received the vehicle alone."}, "rat C6 glioma cells": {"system": "rat C6 glioma cells", "experiment": "Cell proliferation, [3H]thymidine incorporation, rat C6 glioma cells", "format": "cell-based", "details": "6.5 μM, 18 h, hHO-1-transfected rat C6 glioma cells; hydrochloride", "experimental": "Rat C6 glioma cells were cultivated in high glucose DMEM supplemented with 10% heat-inactivated fetal bovine serum, […], and penicillin-streptomycin (50 U/mL and 50 μg/mL, respectively). […] All cultures were incubated at 37° C. in humidified 95% air-5% CO2.\nCells were seeded in 24-well plates at 1×10^6 cells/mL/well. Upon reaching >90% confluence, cells in each well were transiently transfected with 1.6 μg of plasmid DNA-Lipofectamine 2000 complex using Lipofectamine 2000 method according to manufacturer instructions (Invitrogen). 1.6 μg of plasmid DNA and 4 μL of Lipofectamine 2000 reagent were diluted individually in 100 μL opti-MEM I and incubated for 5 minutes at room temperature with gentle mixing. […]\nCell proliferation was determined by [^3H]thymidine incorporation: Cells were plated in 24-well plates at 10^6 cells/mL/well in complete medium. […] The cells were trypsinized and collected, air-dried on 21 mm glass microfibre filters (Whatman International Ltd., Maidstone, England) and analyzed by scintillation counting in a Wallac-Liquid Scintillator Counter (Perkin Elmer Life Sciences, Boston, Mass., USA). [^3H]thymidine incorporation was expressed as counts per min (cpm) per mL."}},
  "data": [
    {"smiles": "Brc1ccc(CCC2(Cn3ccnc3)OCCO2)cc1.Cl", "note": "[QC-56, 1-((2-(2-(4-Bromophenyl)ethyl)-1,3-dioxolan-2-yl)methyl)-1H-imidazole hydrochloride]", "values": [
      {"measurement": "inhibition of tumor growth compared to vehicle alone", "setting": "[1]", "value": "approximately 42%"},
      {"measurement": "tumor size on the day of sacrifice", "setting": "[1]", "value": "1.03±0.16", "unit": "cm^3"},
      {"measurement": "effect of hHO-1 transfection on 3H-thymidine incorporation", "setting": "rat C6 glioma cells", "value": "significantly attenuated"}
    ]}
  ]
}
